{"source": "ChEMBL document CHEMBL1147813", "about": "“Design, molecular modeling, synthesis, and anti-HIV-1 activity of new indolyl aryl sulfones. Novel derivatives of the indole-2-carboxamide” (J Med Chem, 2006)", "key": {"[1]": {"system": "Human immunodeficiency virus", "test": "Activity against HIV-112 assessed by inhibition of p24 production in human lymphocytes", "format": "functional, organism-based", "settings": "Human immunodeficiency virus 1"}, "[2]": {"system": "Human immunodeficiency virus", "test": "Activity against HIV-AB1 assessed by inhibition of p24 production in human lymphocytes", "format": "functional, organism-based", "settings": "Human immunodeficiency virus 1"}, "Lymphocyte [3]": {"system": "Lymphocyte", "test": "Cytotoxicity against human lymphocytes", "format": "functional", "settings": "read-out: TC50 (the source's name)"}, "[4]": {"system": "Human immunodeficiency virus 1", "test": "Antiviral activity against HIV1 3B in MT4 cell line", "format": "functional, organism-based", "settings": "Human immunodeficiency virus 1, 3B"}, "Lymphocyte [5]": {"system": "Lymphocyte", "test": "Selectivity index, TC50 for human lymphocytes/EC50 for HIV1 3B", "format": "functional"}, "[6]": {"system": "Human immunodeficiency virus 1", "test": "Activity against HIV1 3B assessed by inhibition of p24 production in human lymphocytes", "format": "functional, organism-based", "settings": "Human immunodeficiency virus 1, 3B"}, "[7]": {"system": "Human immunodeficiency virus 1", "test": "Antiviral activity against HIV1 K103N-Y181C mutant in MT4 cell line", "format": "functional, organism-based", "settings": "Human immunodeficiency virus 1, MT4"}, "C8166 [8]": {"system": "C8166", "test": "Antiproliferative activity against C8166 cell line by MTT assay", "format": "functional", "settings": "Homo sapiens, read-out: TC50 (the source's name)"}, "MT4 [9]": {"system": "MT4", "test": "Selectivity index, TC50 for MT4 cell line/EC50 for HIV1", "format": "functional"}, "Lymphocyte [10]": {"system": "Lymphocyte", "test": "Selectivity index, TC50 for human lymphocytes/EC50 for HIV-112", "format": "functional"}, "[11]": {"system": "Human immunodeficiency virus 1", "test": "Antiviral activity against HIV1 Y181C mutant in MT4 cell line", "format": "functional, organism-based", "settings": "Human immunodeficiency virus 1, MT4"}, "[12]": {"system": "Human immunodeficiency virus 1", "test": "Antiviral activity against HIV1 in MT4 cell line", "format": "functional, organism-based", "settings": "Human immunodeficiency virus 1, MT4"}, "Macrophage [13]": {"system": "Macrophage", "test": "Cytotoxicity against human macrophages", "format": "functional", "settings": "read-out: TC50 (the source's name)"}, "C8166 [14]": {"system": "C8166", "test": "Selectivity index, TC50 for C8166 cell line/EC50 for HIV1", "format": "functional"}, "MT4 [15]": {"system": "MT4", "test": "Cytotoxicity against MT4 cell line by MTT assay", "format": "functional", "settings": "Homo sapiens, read-out: TC50 (the source's name)"}, "Lymphocyte [16]": {"system": "Lymphocyte", "test": "Selectivity index, TC50 for human lymphocytes/EC50 for HIV-AB1", "format": "functional"}, "[17]": {"system": "Human immunodeficiency virus 1", "test": "Antiviral activity against HIV1 […] in human macrophages", "format": "functional, organism-based"}, "[18]": {"system": "Human immunodeficiency virus 1", "test": "Antiviral activity against HIV1 in C8166 cell line", "format": "functional, organism-based", "settings": "Human immunodeficiency virus 1, C8166"}, "Macrophage [19]": {"system": "Macrophage", "test": "Selectivity index, TC50 for human macrophages/EC50 for HIV1 […]", "format": "functional"}}}
{"smiles": "Cc1ccnc2c1NC(=O)c1cccnc1N2C1CC1", "note": "[NEVIRAPINE]", "values": [{"measurement": "EC50", "setting": "[1]", "result": "> 20000", "unit": "nM"}, {"measurement": "EC50", "setting": "[2]", "result": "> 20000", "unit": "nM"}, {"measurement": "CC50", "setting": "Lymphocyte [3]", "result": "> 100000", "unit": "nM"}, {"measurement": "EC50", "setting": "[4]", "result": 370, "unit": "nM"}, {"measurement": "Selectivity index", "setting": "Lymphocyte [5]", "result": ">1111"}, {"measurement": "EC50", "setting": "[6]", "result": 90, "unit": "nM"}]}
{"smiles": "Cc1cc(C)cc(S(=O)(=O)c2c(C(=O)NNC3CCCCC3)[nH]c3ccc(Cl)cc23)c1", "values": [{"measurement": "EC50", "setting": "[7]", "result": "> 20000", "unit": "nM"}, {"measurement": "CC50", "setting": "C8166 [8]", "result": "> 100000", "unit": "nM"}, {"measurement": "Selectivity index", "setting": "MT4 [9]", "result": ">2000"}, {"measurement": "Selectivity index", "setting": "Lymphocyte [10]", "result": ">100"}, {"measurement": "EC50", "setting": "[11]", "result": 1200, "unit": "nM"}, {"measurement": "EC50", "setting": "[12]; read-out: EC50", "result": 50, "unit": "nM"}, {"measurement": "EC50", "setting": "[12]; read-out: Log EC50 (converted)", "result": 50, "unit": "nM"}, {"measurement": "EC50", "setting": "[1]", "result": 1000, "unit": "nM"}, {"measurement": "EC50", "setting": "[2]", "result": 900, "unit": "nM"}, {"measurement": "CC50", "setting": "Macrophage [13]", "result": "> 100000", "unit": "nM"}, {"measurement": "CC50", "setting": "Lymphocyte [3]", "result": "> 100000", "unit": "nM"}, {"measurement": "EC50", "setting": "[4]", "result": 100, "unit": "nM"}, {"measurement": "Selectivity index", "setting": "C8166 [14]", "result": ">1250"}, {"measurement": "Selectivity index", "setting": "Lymphocyte [5]", "result": ">125"}, {"measurement": "CC50", "setting": "MT4 [15]", "result": "> 100000", "unit": "nM"}, {"measurement": "Selectivity index", "setting": "Lymphocyte [16]", "result": ">111"}, {"measurement": "EC50", "setting": "[17]", "result": 200, "unit": "nM"}, {"measurement": "EC50", "setting": "[18]", "result": 80, "unit": "nM"}, {"measurement": "Selectivity index", "setting": "Macrophage [19]", "result": ">500"}, {"measurement": "EC50", "setting": "[6]", "result": 800, "unit": "nM"}]}
{"smiles": "Cc1cc(C)cc(S(=O)(=O)c2c(C(=O)NCC(N)=O)[nH]c3ccc(Cl)cc23)c1", "values": [{"measurement": "EC50", "setting": "[7]", "result": 1200, "unit": "nM"}, {"measurement": "CC50", "setting": "C8166 [8]", "result": "> 100000", "unit": "nM"}, {"measurement": "Selectivity index", "setting": "MT4 [9]", "result": 4500}, {"measurement": "EC50", "setting": "[11]", "result": 50, "unit": "nM"}, {"measurement": "EC50", "setting": "[12]; read-out: EC50", "result": 10, "unit": "nM"}, {"measurement": "EC50", "setting": "[4]", "result": 10, "unit": "nM"}, {"measurement": "Selectivity index", "setting": "C8166 [14]", "result": ">5000"}, {"measurement": "CC50", "setting": "MT4 [15]", "result": 45000, "unit": "nM"}, {"measurement": "EC50", "setting": "[18]", "result": 20, "unit": "nM"}]}
{"smiles": "Cc1cc(C)cc(S(=O)(=O)c2c(C(=O)NNC(=O)NN)[nH]c3ccc(Cl)cc23)c1", "values": [{"measurement": "EC50", "setting": "[7]", "result": 5700, "unit": "nM"}, {"measurement": "CC50", "setting": "C8166 [8]", "result": "> 100000", "unit": "nM"}, {"measurement": "Selectivity index", "setting": "MT4 [9]", "result": ">10000"}, {"measurement": "Selectivity index", "setting": "Lymphocyte [10]", "result": ">2000"}, {"measurement": "EC50", "setting": "[11]", "result": 20, "unit": "nM"}, {"measurement": "EC50", "setting": "[12]; read-out: EC50", "result": 10, "unit": "nM"}, {"measurement": "EC50", "setting": "[12]; read-out: Log EC50 (converted)", "result": 10, "unit": "nM"}, {"measurement": "EC50", "setting": "[1]", "result": 50, "unit": "nM"}, {"measurement": "EC50", "setting": "[2]", "result": 40, "unit": "nM"}, {"measurement": "CC50", "setting": "Macrophage [13]", "result": "> 100000", "unit": "nM"}, {"measurement": "CC50", "setting": "Lymphocyte [3]", "result": "> 100000", "unit": "nM"}, {"measurement": "EC50", "setting": "[4]", "result": 40, "unit": "nM"}, {"measurement": "Selectivity index", "setting": "C8166 [14]", "result": ">12500"}, {"measurement": "Selectivity index", "setting": "Lymphocyte [5]", "result": ">3333"}, {"measurement": "CC50", "setting": "MT4 [15]", "result": "> 100000", "unit": "nM"}, {"measurement": "Selectivity index", "setting": "Lymphocyte [16]", "result": ">2500"}, {"measurement": "EC50", "setting": "[17]", "result": 9, "unit": "nM"}, {"measurement": "EC50", "setting": "[18]", "result": 8, "unit": "nM"}, {"measurement": "Selectivity index", "setting": "Macrophage [19]", "result": ">11111"}, {"measurement": "EC50", "setting": "[6]", "result": 30, "unit": "nM"}]}
{"smiles": "Cc1cc(C)cc(S(=O)(=O)c2c(C(=O)NNC(C)C)[nH]c3ccc(Cl)cc23)c1", "values": [{"measurement": "EC50", "setting": "[7]", "result": 8600, "unit": "nM"}, {"measurement": "CC50", "setting": "C8166 [8]", "result": "> 100000", "unit": "nM"}, {"measurement": "Selectivity index", "setting": "MT4 [9]", "result": ">142857"}, {"measurement": "Selectivity index", "setting": "Lymphocyte [10]", "result": ">16666"}, {"measurement": "EC50", "setting": "[11]", "result": 40, "unit": "nM"}, {"measurement": "EC50", "setting": "[12]; read-out: EC50", "result": 0.7, "unit": "nM"}, {"measurement": "EC50", "setting": "[12]; read-out: Log EC50 (converted)", "result": 0.7, "unit": "nM"}, {"measurement": "EC50", "setting": "[1]", "result": 6, "unit": "nM"}, {"measurement": "EC50", "setting": "[2]", "result": 8, "unit": "nM"}, {"measurement": "CC50", "setting": "Macrophage [13]", "result": "> 100000", "unit": "nM"}, {"measurement": "CC50", "setting": "Lymphocyte [3]", "result": "> 100000", "unit": "nM"}, {"measurement": "EC50", "setting": "[4]", "result": 0.7, "unit": "nM"}, {"measurement": "Selectivity index", "setting": "C8166 [14]", "result": ">33333"}, {"measurement": "Selectivity index", "setting": "Lymphocyte [5]", "result": ">12500"}, {"measurement": "CC50", "setting": "MT4 [15]", "result": "> 100000", "unit": "nM"}, {"measurement": "Selectivity index", "setting": "Lymphocyte [16]", "result": ">12500"}, {"measurement": "EC50", "setting": "[17]", "result": 5, "unit": "nM"}, {"measurement": "EC50", "setting": "[18]", "result": 3, "unit": "nM"}, {"measurement": "Selectivity index", "setting": "Macrophage [19]", "result": ">20000"}, {"measurement": "EC50", "setting": "[6]", "result": 8, "unit": "nM"}]}
{"smiles": "O=C1Nc2ccc(Cl)cc2[C@@](C#CC2CC2)(C(F)(F)F)O1", "note": "[EFAVIRENZ]", "values": [{"measurement": "EC50", "setting": "[1]", "result": "> 20000", "unit": "nM"}, {"measurement": "EC50", "setting": "[2]", "result": "> 20000", "unit": "nM"}, {"measurement": "CC50", "setting": "Lymphocyte [3]", "result": "> 100000", "unit": "nM"}, {"measurement": "EC50", "setting": "[6]", "result": 7, "unit": "nM"}]}
